Test results published in patent publication US5278152A, “2-formylbenzylphosphonic acid derivatives useful for the treatment of diseases caused by viruses” (priority 1989, dated 1994).
Several values for one entry are separate records, joined by “and”; a condition that tells them apart may be missing. Equal entries are not always repeated. Structures can show the parent of a compound that is named as a salt. Where two headings read alike, the source gives them in different places.

How the values were obtained:
influenza A2 = assay type: in vivo, NMRI mice; details: twice daily over 2.5 days; for Number of surviving animals: groups of 5 mice
Herpes simplex Type 1 = Herpes simplex Type 1 infection of NMRI mice, survival; assay type: in vivo; details: twice daily over 2.5 days; for Surviving animals: groups of 5 mice
Protocol: Pathogen-free NMRI mice having a weight of about 15 g were infected intraperitoneally with Herpes simplex Type 1 and then treated intraperitoneally, orally or subcutaneously with the compounds mentioned in Table 1. The treatment was carried out twice daily over the course of 2.5 days, starting after infection. The result of treatment was determined on the basis of the course of the disease and the survival rate compared to the untreated infection controls. The controls received a water-solublemethylhydroxyethylcellulose (viscosity […], administered in 2% strength solution) instead of the compounds to be tested. The experiments were carried out using groups of 5 mice each per preparation.
The chemotherapeutic action of the compound A can be seen from Table 1.

[1] = system: myxoviruses (influenza A2); assay: microbe, parasite or virus in culture; assay type: cell-based, influenza A2 virus in Hela and Vero cells; details: read-out: MIC (minimum inhibitory concentration)
in vitro = details: hela and vero cells
viruses = details: literature; cited from earlier work
[2] = literature; cited from earlier work

Which Average survival time (influenza A2; po, 0.25 mg/kg) does the source give for `CCOP(=O)(Cc1ccccc1C1O[C@H](c2ccccc2)[C@H](C)N1C)OCC` (single isomer, unassigned) [F, Diethyl 2-(3,4-dimethyl-5-phenyloxazolidin-2-yl)benzylphosphonate] here?
The Average survival time was 6.5 days.

What about the “Number of surviving animals” value (influenza A2; po, 0.25 mg/kg) of the same compound?
The value was 3.

And the Average survival time (influenza A2; po, 2.5 mg/kg)?
The Average survival time was 6.5 days.

What about the “Number of surviving animals” value (influenza A2; po, 2.5 mg/kg) of the same compound?
The value was 3.

And the Average survival time (influenza A2; po, 25 mg/kg)?
Its Average survival time is 7.0 days.

What about the “Number of surviving animals” value (influenza A2; po, 25 mg/kg) of the same compound?
The value was 2.

Which Average survival time (Herpes simplex Type 1; ip, 3 mg/kg) does the source give for `CCOP(=O)(Cc1ccccc1C=O)OCC` [A, diethyl 2-formylbenzylphosphonate] here?
Its Average survival time is 8.0 days.

What about the Surviving animals (Herpes simplex Type 1; ip, 3 mg/kg) of the same compound?
The Surviving animals was 0.

What about the Average survival time (Herpes simplex Type 1; ip, 10 mg/kg) of the same compound?
The Average survival time was 9.0 days.

And the Surviving animals (Herpes simplex Type 1; ip, 10 mg/kg)?
The Surviving animals was 4.

And the Average survival time (Herpes simplex Type 1; ip, 30 mg/kg)?
The Average survival time was 8.5 days.

What about the Surviving animals (Herpes simplex Type 1; ip, 30 mg/kg) of the same compound?
The Surviving animals was 3.

What about the Average survival time (Herpes simplex Type 1; po, 2.5 mg/kg) of the same compound?
Its Average survival time is 8.0 days.

What about the Surviving animals (Herpes simplex Type 1; po, 2.5 mg/kg) of the same compound?
The Surviving animals was 4.

What about the Surviving animals (Herpes simplex Type 1; po, 25 mg/kg) of the same compound?
The Surviving animals was 5.

And the Average survival time (Herpes simplex Type 1; po, 250 mg/kg)?
The Average survival time was 8.0 days.

What about the Surviving animals (Herpes simplex Type 1; po, 250 mg/kg) of the same compound?
Its Surviving animals is 4.

And the Average survival time (Herpes simplex Type 1; sc, 2.5 mg/kg)?
The Average survival time was 9.0 days.

What about the Surviving animals (Herpes simplex Type 1; sc, 2.5 mg/kg) of the same compound?
The Surviving animals was 2.

What about the Average survival time (Herpes simplex Type 1; sc, 25 mg/kg) of the same compound?
Its Average survival time is 7.2 days.

And the Surviving animals (Herpes simplex Type 1; sc, 25 mg/kg)?
The Surviving animals was 0.

And the Average survival time (Herpes simplex Type 1; sc, 250 mg/kg)?
Its Average survival time is 8.4 days.

What about the Surviving animals (Herpes simplex Type 1; sc, 250 mg/kg) of the same compound?
The Surviving animals was 0.

What about the Average survival time (influenza A2; po, 2.5 mg/kg) of the same compound?
Its Average survival time is 9.0 days.

What about the “Number of surviving animals” value (influenza A2; po, 2.5 mg/kg) of the same compound?
Its value is 4.

And the Average survival time (influenza A2; po, 3 mg/kg)?
Its Average survival time is 8.0 days.

What about the “Number of surviving animals” value (influenza A2; po, 3 mg/kg) of the same compound?
Its value is 4.

What about the Average survival time (influenza A2; po, 10 mg/kg) of the same compound?
Its Average survival time is 7.0 days.

And the “Number of surviving animals” value (influenza A2; po, 10 mg/kg)?
The value was 4.

What about the Average survival time (influenza A2; po, 25 mg/kg) of the same compound?
Its Average survival time is 6.3 days.

And the “Number of surviving animals” value (influenza A2; po, 25 mg/kg)?
Its value is 2.

What about the Average survival time (influenza A2; po, 30 mg/kg) of the same compound?
The Average survival time was 7.3 days.

And the “Number of surviving animals” value (influenza A2; po, 30 mg/kg)?
The value was 2.

What about the Average survival time (influenza A2; sc, 2.5 mg/kg) of the same compound?
Its Average survival time is 6.7 days.

What about the “Number of surviving animals” value (influenza A2; sc, 2.5 mg/kg) of the same compound?
The value was 2.

And the Average survival time (influenza A2; sc, 25 mg/kg)?
Its Average survival time is 7.0 days.

And the “Number of surviving animals” value (influenza A2; sc, 25 mg/kg)?
The value was 3.

Which results are given for `NC12CC3CC(CC(C3)C1)C2` [Amantadine, reference compound]?
Average survival time (influenza A2; po, 80 mg/kg): 8.0 days; Number of surviving animals (influenza A2; po, 80 mg/kg, 80 mg/kg): 5 and 4; Number of surviving animals (influenza A2; sc, 80 mg/kg): 5

Which results are given for `O=Cc1ccccc1CP(=O)(O)O` [B, 2-formylbenzylphosphonic acid di(triethylammonium) salt]?
Average survival time (Herpes simplex Type 1; po, 3 mg/kg): 7.0 days; Surviving animals (Herpes simplex Type 1; po, 3 mg/kg): 3; Average survival time (Herpes simplex Type 1; po, 10 mg/kg): 8.3 days; Surviving animals (Herpes simplex Type 1; po, 10 mg/kg): 2; Average survival time (Herpes simplex Type 1; po, 30 mg/kg): 6.0 days; Surviving animals (Herpes simplex Type 1; po, 30 mg/kg): 3; Average survival time (Herpes simplex Type 1; sc, 3 mg/kg): 7.8 days; Surviving animals (Herpes simplex Type 1; sc, 3 mg/kg): 2; Average survival time (Herpes simplex Type 1; sc, 10 mg/kg): 7.0 days; Surviving animals (Herpes simplex Type 1; sc, 10 mg/kg): 3; Average survival time (Herpes simplex Type 1; sc, 30 mg/kg): 6.5 days; Surviving animals (Herpes simplex Type 1; sc, 30 mg/kg): 3; MIC [1]: 4.94 µg/mL; Average survival time (influenza A2; po, 1.5 mg/kg): 8.5 days; Number of surviving animals (influenza A2; po, 1.5 mg/kg): 3; Number of surviving animals (influenza A2; po, 15 mg/kg): 5; Average survival time (influenza A2; po, 150 mg/kg): 7.0 days; Number of surviving animals (influenza A2; po, 150 mg/kg): 3; Average survival time (influenza A2; sc, 1.5 mg/kg): 8.5 days; Number of surviving animals (influenza A2; sc, 1.5 mg/kg): 1; Average survival time (influenza A2; sc, 15 mg/kg): 8.0 days; Number of surviving animals (influenza A2; sc, 15 mg/kg): 4; MNTC (in vitro): > 400 µg/mL

For `CCOP(=O)(O)Cc1ccccc1C=O` [C, monoethyl 2-formylbenzylphosphonate triethylammonium salt], which Average survival time (Herpes simplex Type 1; po, 3 mg/kg) is on record?
The Average survival time was 9.0 days.

And the Surviving animals (Herpes simplex Type 1; po, 3 mg/kg)?
The Surviving animals was 4.

And the Average survival time (Herpes simplex Type 1; po, 10 mg/kg)?
The Average survival time was 8.0 days.

What about the Surviving animals (Herpes simplex Type 1; po, 10 mg/kg) of the same compound?
Its Surviving animals is 3.

What about the Average survival time (Herpes simplex Type 1; po, 30 mg/kg) of the same compound?
Its Average survival time is 8.3 days.

And the Surviving animals (Herpes simplex Type 1; po, 30 mg/kg)?
Its Surviving animals is 1.

What about the Average survival time (Herpes simplex Type 1; sc, 3 mg/kg) of the same compound?
Its Average survival time is 8.5 days.

And the Surviving animals (Herpes simplex Type 1; sc, 3 mg/kg)?
Its Surviving animals is 1.

And the Average survival time (Herpes simplex Type 1; sc, 10 mg/kg)?
The Average survival time was 8.0 days.

What about the Surviving animals (Herpes simplex Type 1; sc, 10 mg/kg) of the same compound?
Its Surviving animals is 3.

And the Average survival time (Herpes simplex Type 1; sc, 30 mg/kg)?
The Average survival time was 10.0 days.

What about the Surviving animals (Herpes simplex Type 1; sc, 30 mg/kg) of the same compound?
Its Surviving animals is 4.

And the MIC [1]?
Its MIC is 44.4 µg/mL.

And the “Number of surviving animals” value (influenza A2; po, 0.25 mg/kg)?
Its value is 5.

And the Average survival time (influenza A2; po, 2.5 mg/kg)?
Its Average survival time is 6.0 days.

And the “Number of surviving animals” value (influenza A2; po, 2.5 mg/kg)?
Its value is 2.

What about the “Number of surviving animals” value (influenza A2; po, 25 mg/kg) of the same compound?
The value was 5.

And the “Number of surviving animals” value (influenza A2; sc, 0.25 mg/kg)?
Its value is 5.

What about the “Number of surviving animals” value (influenza A2; sc, 2.5 mg/kg) of the same compound?
The value was 5.

And the Average survival time (influenza A2; sc, 25 mg/kg)?
The Average survival time was 7.5 days.

And the “Number of surviving animals” value (influenza A2; sc, 25 mg/kg)?
The value was 3.

And the MNTC (in vitro)?
The MNTC was > 400 µg/mL.

Which results are given for `CCOP(=O)(Cc1ccccc1C=NNC(N)=S)OCC` [D, Diethyl 2-formylbenzylphosphonate thiosemicarbazone]?
Average survival time (influenza A2; po, 0.25 mg/kg): 8.0 days; Number of surviving animals (influenza A2; po, 0.25 mg/kg): 4; Average survival time (influenza A2; po, 2.5 mg/kg): 7.0 days; Number of surviving animals (influenza A2; po, 2.5 mg/kg): 1; Average survival time (influenza A2; po, 25 mg/kg): 7.3 days; Number of surviving animals (influenza A2; po, 25 mg/kg): 2

What does the source list for `CCOP(=O)(Cc1ccccc1C=NNC(=O)c1cccnc1)OCC` [E, Diethyl 2-formylbenzylphosphonate nicotinic acid hydrazone]?
Average survival time (influenza A2; po, 0.25 mg/kg): 8.0 days; Number of surviving animals (influenza A2; po, 0.25 mg/kg): 4; Average survival time (influenza A2; po, 2.5 mg/kg): 6.7 days; Number of surviving animals (influenza A2; po, 2.5 mg/kg): 3; Average survival time (influenza A2; po, 25 mg/kg): 6.0 days; Number of surviving animals (influenza A2; po, 25 mg/kg): 3

With `O=P(O)(O)CP(=O)(O)O` [MDP, methylenediphosphonic acid] as the compound, how does the antiviral activity (viruses) read?
The antiviral activity was “exhibit antiviral activity”.

Which antiviral activity (viruses) does the source give for `O=C(O)CP(=O)(O)O` [PAA, phosphonoacetic acid] here?
The antiviral activity was “exhibit antiviral activity”.

What does the source list for `O=C(O)P(=O)(O)O` [PFA, phosphonoformic acid]?
antiviral activity (viruses): wide antiviral spectrum; toxic side effects [2]: some toxic side effects
